Columns and labels:
[1] = biological target: T1, human recombinant kinase full-length wildtype AKT1 (Homo sapiens, UniProt P31749); test: AKT1 kinase assay (wildtype, TR-FRET, Lance); assay type: biochemical; settings: 0.6 nM wildtype AKT1, 50 nM Ulight-CREBtide, either 50 μM ATP or 2 mM ATP, 60 min at RT
T1 construct: Purified human recombinant kinase full-length wildtype AKT1 was expressed in insect cells; made in house; host or cells: insect cells
How it was run: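 TR-FRET 665/620 ratio quantified phospho-CREBtide formed by PDPK1-activated full-length human AKT1 (0.6 nM, insect-cell-derived) over 60 min at RT with 50 nM ULight-CREBtide and either 50 μM or 2 mM ATP. Compounds were preincubated 15 min with enzyme; IC50 came from 4-parameter fits of 10-point duplicates.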

[2] = biological target: T2, human recombinant kinase full-length AKT1 E17K (Homo sapiens, UniProt P31749, E17K); test: AKT1 E17K kinase assay (TR-FRET, Lance); assay type: biochemical; settings: 0.6 nM AKT1 E17K, 50 nM Ulight-CREBtide, either 50 μM ATP or 2 mM ATP, 60 min at RT
T2 construct: Purified human recombinant kinase full-length AKT1 E17K was expressed in insect cells; made in house; host or cells: insect cells
T2 sequence (P31749 whole entry E17K): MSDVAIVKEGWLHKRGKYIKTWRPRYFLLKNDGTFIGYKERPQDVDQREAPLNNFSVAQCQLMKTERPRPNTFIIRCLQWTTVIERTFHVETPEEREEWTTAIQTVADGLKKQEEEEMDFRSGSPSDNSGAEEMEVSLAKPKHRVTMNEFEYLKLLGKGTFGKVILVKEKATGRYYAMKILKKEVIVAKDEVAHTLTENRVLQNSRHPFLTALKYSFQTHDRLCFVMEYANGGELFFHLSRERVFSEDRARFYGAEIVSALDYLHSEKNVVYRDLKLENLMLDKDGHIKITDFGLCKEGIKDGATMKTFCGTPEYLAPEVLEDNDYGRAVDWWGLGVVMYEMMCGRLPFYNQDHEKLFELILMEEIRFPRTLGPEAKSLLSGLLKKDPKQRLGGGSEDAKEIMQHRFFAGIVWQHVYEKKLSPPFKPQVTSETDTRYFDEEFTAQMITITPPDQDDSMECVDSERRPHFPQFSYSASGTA
How it was run: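 IC50 came from a 10-point, 4-parameter fit of the 665/620 TR-FRET ratio read with Eu-anti-phospho-CREB (Ser133). Reaction at RT for 60 min after 15 min compound preincubation, using 0.6 nM PDPK1-activated full-length AKT1 E17K (insect-cell), 50 nM Ulight-CREBtide, ATP at 50 μM or 2 mM, HEPES pH 7.5, 1% DMSO.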

T1 sequence (P31749 whole entry): as the sequence (P31749 whole entry E17K) above, with K17E counted along it

Row | Structure (SMILES) | IC50 [1] [µM] | IC50 [2] [µM]
1 | Nc1ncccc1-c1nc2ccc(-c3ccccc3)nc2n1-c1ccc(N2CC3(CC(C(=O)O)C3)C2)nc1 [Compound I-107, 2-(5-(2-(2-aminopyridin-3-yl)-5-phenyl-3H-imidazo[4,5-b]pyridin-3-yl)pyridin-2-yl)-2-azaspiro[3.3]heptane-6-carboxylic acid] | < 20 | ≥ 2
2 | Nc1ncccc1-c1nc2ccc(-c3ccccc3)nc2n1-c1ccc(C2CN(C[C@H]3CC[C@H](C(=O)O)CC3)C2)cc1 [Compound I-57, (1r,4r)-4-((3-(4-(2-(2-aminopyridin-3-yl)-5-phenyl-3H-imidazo[4,5-b]pyridin-3-yl)phenyl)azetidin-1-yl)methyl)cyclohexane-1-carboxylic acid] | < 20 | < 0.5
3 | NC(=O)N1CCC(CCc2ccc(-n3c(-c4cccnc4N)nc4ccc(-c5ccccc5)nc43)cc2F)CC1 [Compound I-181] | < 20 | 0.5 to 2
4 | CNC(=O)[C@H]1CC[C@H](C(=O)Nc2ccc(-n3c(-c4cccnc4N)nc4ccc(-c5ccccc5)nc43)c(C)n2)CC1 [Compound I-141, (1r,4r)-N1-(5-(2-(2-aminopyridin-3-yl)-5-phenyl-3H-imidazo[4,5-b]pyridin-3-yl)-6-methylpyridin-2-yl)-N4-methylcyclohexane-1,4-dicarboxamide] | < 20 | 0.5 to 2
5 | Nc1ncccc1-c1nc2ccc(-c3ccccc3)nc2n1-c1ccc(C2CCN(CC34CCC(C(=O)O)(CC3)CC4)CC2)cc1 [Compound I-195] | < 20 | 0.5 to 2
6 | Nc1ncccc1-c1nc2ccc(-c3ccccc3)nc2n1-c1ccc(CN[C@H]2CC[C@H](C(=O)O)CC2)cc1 [Compound I-90, (1r,4r)-4-((4-(2-(2-aminopyridin-3-yl)-5-phenyl-3H-imidazo[4,5-b]pyridin-3-yl)benzyl)amino)cyclohexane-1-carboxylic acid] | < 20 | < 0.5
7 | Nc1ncccc1-c1nc2ccc(-n3cccn3)nc2n1-c1ccc(NC(=O)[C@H]2CC[C@H](C(=O)O)CC2)nc1 [Compound I-41, (1r,4r)-4-((5-(2-(2-aminopyridin-3-yl)-5-(1H-pyrazol-1-yl)-3H-imidazo[4,5-b]pyridin-3-yl)pyridin-2-yl)carbamoyl)cyclohexane-1-carboxylic acid] | < 20 | < 0.5
8 | Cc1nc(NC(=O)[C@H]2CC[C@H](C(N)=O)CC2)ccc1-n1c(-c2cccnc2N)nc2ccc(-c3ccccc3)nc21 [Compound I-142, trans-N-(5-(2-(2-aminopyridin-3-yl)-5-phenyl-3H-imidazo[4,5-b]pyridin-3-yl)-6-methylpyridin-2-yl)cyclohexane-1,4-dicarboxamide] | < 20 | 0.5 to 2
9 | Cc1cc(NC(=O)C2CC3(CC(C(=O)O)C3)C2)ccc1-n1c(-c2cccnc2N)nc2ccc(-c3ccccc3)nc21 (stereo not drawn) [Compound I-100, 6-((4-(2-(2-aminopyridin-3-yl)-5-phenyl-3H-imidazo[4,5-b]pyridin-3-yl)-3-methylphenyl)carbamoyl)spiro[3.3]heptane-2-carboxylic acid] | < 20 | 0.5 to 2
10 | CNS(=O)(=O)C1CCC(CN2CC(c3ccc(-n4c(-c5cccnc5N)nc5ccc(-c6ccccc6)nc54)cc3)C2)CC1 (stereo not drawn) [Compound I-152] | < 20 | 0.5 to 2
11 | CC(C)Oc1ccc2nc(-c3cccnc3N)n(-c3ccc(NC(=O)[C@H]4CC[C@H](C(=O)O)CC4)nc3)c2c1 [Compound I-124, (1r,4r)-4-((5-(2-(2-aminopyridin-3-yl)-6-isopropoxy-1H-benzo[d]imidazol-1-yl)pyridin-2-yl)carbamoyl)cyclohexane-1-carboxylic acid] | < 20 | ≥ 2
12 | Nc1ncccc1-c1nc2ccc(-c3ccccc3)nc2n1-c1ccc(C2CCN(CC3CCC(C(=O)O)CC3)C2)cc1 (stereo not drawn) [Compound I-78, 4-((3-(4-(2-(2-aminopyridin-3-yl)-5-phenyl-3H-imidazo[4,5-b]pyridin-3-yl)phenyl)pyrrolidin-1-yl)methyl)cyclohexane-1-carboxylic acid] | < 20 | 0.5 to 2
13 | Nc1ncccc1-c1nc2ccc(-c3ccccc3)nc2n1-c1ccc(CN2CCC(C(=O)O)CC2)cc1 [Compound I-29, 1-(4-(2-(2-aminopyridin-3-yl)-5-phenyl-3H-imidazo[4,5-b]pyridin-3-yl)benzyl)piperidine-4-carboxylic acid] | < 20 | 0.5 to 2
14 | Nc1ncccc1-c1nc2ccc(-c3ccccc3)nc2n1-c1ccc(CN2CCC(CC(=O)O)C2)cc1 (stereo not drawn) [Compound I-94, 2-(1-(4-(2-(2-aminopyridin-3-yl)-5-phenyl-3H-imidazo[4,5-b]pyridin-3-yl)benzyl)pyrrolidin-3-yl)acetic acid] | < 20 | < 0.5
15 | Nc1ncccc1-c1nc2ccc(C3CCOCC3)cc2n1-c1ccc(NC(=O)[C@H]2CC[C@H](C(=O)O)CC2)cc1 [Compound I-34, (1r,4r)-4-((4-(2-(2-aminopyridin-3-yl)-6-(tetrahydro-2H-pyran-4-yl)-1H-benzo[d]imidazol-1-yl)phenyl)carbamoyl)cyclohexane-1-carboxylic acid] | < 20 | ≥ 2
16 | Nc1ncccc1-c1nc2ccc(-c3ccccc3)nc2n1-c1ccc(C(=O)N[C@H]2CC[C@H](C(=O)O)CC2)nc1 [Compound I-19, (1r,4r)-4-(5-(2-(2-aminopyridin-3-yl)-5-phenyl-3H-imidazo[4,5-b]pyridin-3-yl)picolinamido)cyclohexane-1-carboxylic acid] | < 20 | ≥ 2
17 | CC(C)(C(=O)O)[C@H]1CCN(Cc2ccc(-n3c(-c4cccnc4N)nc4ccc(-c5ccccc5)nc43)cc2)C1 (stereo in doubt) [Compound I-175] | < 20 | 0.5 to 2
18 | CCN(Cc1ccc(-n2c(-c3cccnc3N)nc3ccc(-c4ccccc4)nc32)c(F)c1)[C@H]1CC[C@H](C(=O)O)CC1 [Compound I-163] | < 20 | ≥ 2
19 | Cc1nc(NC[C@@H]2CC[C@@H](C(=O)O)C2)ccc1-n1c(-c2cccnc2N)nc2ccc(-c3ccccc3)nc21 [Compound I-227] | < 20 | 0.5 to 2
20 | Nc1ncccc1-c1nc2ccc(-c3ccccc3)cc2n1-c1ccc(NC(=O)C2CCCC(C(=O)O)C2)nc1 (stereo not drawn) [Compound I-111, 3-((5-(2-(2-aminopyridin-3-yl)-6-phenyl-1H-benzo[d]imidazol-1-yl)pyridin-2-yl)carbamoyl)cyclohexane-1-carboxylic acid] | < 20 | 0.5 to 2
21 | CC(C)C([C@H]1CC[C@H](C(=O)O)CC1)N1CC(c2ccc(-n3c(-c4cccnc4N)nc4ccc(-c5ccccc5)nc43)cc2)C1 (stereo partly drawn) [Compound I-143] | < 20 | 0.5 to 2
22 | Nc1ncccc1-c1nc2ccc(-c3ccccc3)nc2n1-c1ccc([C@@H]2CCN(C[C@H]3CC[C@H](C(=O)O)CC3)C2)cc1 (single isomer, unassigned) [Compound I-233] | < 20 | < 0.5
23 | Nc1ncccc1-c1nc2ccc(-c3ccccc3)nc2n1-c1ccc(C2CCN(C[C@@H]3CCC[C@H](C(=O)O)C3)CC2)cc1 (stereo in doubt) [Compound I-192] | < 20 | 0.5 to 2
24 | CN(Cc1ccc(-n2c(-c3cccnc3N)nc3ccc(-c4ccccc4)nc32)c(F)c1)C12CCC(C(=O)O)(CC1)CC2 [Compound I-161] | < 20 | < 0.5
25 | Nc1ncccc1-c1nc2ccc(-c3ccccc3)nc2n1-c1ccc(C2CN(C[C@H]3CC4CC3CC4C(=O)O)C2)cc1 (stereo partly drawn) [Compound I-149] | < 20 | < 0.5
26 | Nc1ncccc1-c1nc2ccc(-c3ccccc3)nc2n1-c1ccc(N[C@H]2CC[C@@H](C(=O)O)CC2)nc1 (single isomer, unassigned) [Compound I-15, (1s,4s)-4-((5-(2-(2-aminopyridin-3-yl)-5-phenyl-3H-imidazo[4,5-b]pyridin-3-yl)pyridin-2-yl)amino)cyclohexane-1-carboxylic acid] | < 20 | ≥ 2
27 | Nc1ncccc1-c1nc2ccc(-c3ccc(F)cc3)nc2n1-c1ccc(C2CN(C[C@H]3CC[C@H](C(=O)O)CC3)C2)cc1 [Compound I-66, (1r,4r)-4-((3-(4-(2-(2-aminopyridin-3-yl)-5-(4-fluorophenyl)-3H-imidazo[4,5-b]pyridin-3-yl)phenyl)azetidin-1-yl)methyl)cyclohexane-1-carboxylic acid] | < 20 | 0.5 to 2
28 | Cc1cc(C2CN(C[C@H]3CC[C@@H](C(=O)O)CC3)C2)ccc1-n1c(-c2cccnc2N)nc2ccc(-c3ccccc3F)nc21 [Compound I-210] | < 20 | 0.5 to 2
29 | Nc1ncccc1-c1nc2ccc(-c3ccccc3)nc2n1-c1ccc(NC(=O)C2CCC(C(=O)O)CC2)cc1F (stereo not drawn) [Compound I-5, 4-((4-(2-(2-aminopyridin-3-yl)-5-phenyl-3H-imidazo[4,5-b]pyridin-3-yl)-3-fluorophenyl)carbamoyl)cyclohexane-1-carboxylic acid] | < 20 | 0.5 to 2
30 | Nc1ncccc1-c1nc2ccc(-c3ccccc3)nc2n1-c1ccc(C2CCN(C[C@H]3CCC[C@@H](C(=O)O)C3)CC2)cc1 (stereo in doubt) [Compound I-191] | < 20 | 0.5 to 2

— patent US20260200920A1, “SUBSTITUTED AMINOPYRIDINE COMPOUNDS FOR USE AS AKT1 INHIBITORS” (Atavistik Bio, Inc., priority 2023, published 2026)
